# Test results as given in patent publication US8916702B2 (priority 2012, dated 2014).
# Like-named read-outs stand apart in the source and are kept apart here.
# Test system: HCV pseudoparticles (genotype 1a HCV E1 and E2 envelope, H77C isolate)
# Assay: microbe, parasite or virus in culture
# Format: cell-based
# Conditions: Hepatitis C virus
# [1] = Huh-7, read-out: Activity (EC50 class), HCV pseudoparticles (genotype 1a, H77C) in Huh7 cells, EC50 expressed as class A/B
# [2] = Huh-7, 48 h, read-out: Activity (EC50 class), HCV pseudoparticles, Huh7 cells, luciferase 2 days after infection, average of duplicates
# [3] = Huh-7, 48 h, read-out: Activity (EC50 class), HCV pseudoparticle infection of Huh7 cells, luciferase 2 days after infection, EC50 expressed as class A/B
# [4] = Huh-7, 48 h, HCV pseudoparticle infection of Huh7 cells, luciferase 2 days after infection, average of duplicates
SMILES,EC50 [1],EC50 [3],further results
O=C(Nc1cc(F)cc(F)c1)C(=O)N(CCO)CCCNC(=O)c1ccc(Nc2nc(NC3(c4ccc(Cl)cc4)CC3)nc(OCC(F)(F)F)n2)cc1 [Compound 3507],0.01 to 10 nM,,
Cc1ccc(NC(=O)C(=O)NCC(C)(C)CNC(=O)c2ccc(Nc3nc(NC4(c5ccc(Cl)cc5)CC4)nc(OCc4ccc(C(F)(F)F)cc4)n3)cc2)cc1 [Compound 3851],,,EC50 [2]: 0.01 to 10 nM
COC(=O)[C@H](CNC(=O)C(=O)Nc1cncn1C)NC(=O)c1ccc(Nc2nc(NC3(c4ccc(Cl)cc4)CC3)nc(OCC(F)(F)F)n2)cc1 [Compound 1247],,0.01 to 10 nM,
Cc1cccc(CNC(=O)C(=O)NCC(C)(C)CNC(=O)c2ccc(Nc3nc(NC4(c5ccc(Cl)cc5)CC4)nc(OCC(F)(F)F)n3)cc2)c1 [Compound 3042],0.01 to 10 nM,,
O=C(NC[C@H](NC(=O)c1ccc(Nc2nc(NC3(c4ccc(Cl)cc4)CC3)nc(OCC(F)(F)F)n2)cc1)C(=O)O)C(=O)Nc1cc[nH]n1 [Compound 1353],,0.01 to 10 nM,EC50 [4]: 1.66 nM
COC(=O)[C@H](CNC(=O)C(=O)NCCc1cccc(OC)c1)NC(=O)c1ccc(Nc2nc(NC3(c4ccc(Cl)cc4)CC3)nc(OCC(F)(F)F)n2)cc1 [Compound 1286],,0.01 to 10 nM,
COC(=O)[C@H](CCNC(=O)C(=O)Nc1ccc(CCO)cc1)NC(=O)c1ccc(Nc2nc(NC3(c4ccc(Cl)cc4)CC3)nc(OCC(F)(F)F)n2)cc1 [Compound 3218],0.01 to 10 nM,,
COC(=O)[C@H](CNC(=O)C(=O)Nc1ccnc(OC)c1)NC(=O)c1ccc(Nc2nc(NC3(c4ccc(Cl)cc4)CC3)nc(OCC(F)(F)F)n2)cc1 [Compound 1241],,0.01 to 10 nM,EC50 [4]: 0.99 nM
CCC(CC)NC(=O)C(=O)NC[C@@H](NC(=O)c1ccc(Nc2nc(NC3(c4ccc(Cl)cc4)CC3)nc(OCC(F)(F)F)n2)cc1)C(=O)OC [Compound 1063],,0.01 to 10 nM,
COC(=O)[C@H](CCNC(=O)C(=O)NCC1CC[C@H]2C[C@@H]1C2(C)C)NC(=O)c1ccc(Nc2nc(NC3(c4ccc(Cl)cc4)CC3)nc(OCC(F)(F)F)n2)cc1 (some centres unmarked) [Compound 1201],,0.01 to 10 nM,
CNC(=O)CCc1cccc(NC(=O)C(=O)NCC(C)(C)CNC(=O)c2ccc(Nc3nc(NC4(c5ccc(Cl)cc5)CC4)nc(OCC(F)(F)F)n3)cc2)c1 [Compound 3037],0.01 to 10 nM,,
Cc1nccc(-c2cccc(NC(=O)C(=O)NCC[C@H](NC(=O)c3ccc(Nc4nc(NC5(c6ccc(Cl)cc6)CC5)nc(OCC(F)(F)F)n4)cc3)C(=O)O)c2)n1 [Compound 3625],,,EC50 [2]: 0.01 to 10 nM
O=C(NCC[C@H](NC(=O)c1ccc(Nc2nc(NC3(c4ccc(Cl)cc4)CC3)nc(OCC(F)(F)F)n2)cc1)C(=O)O)C(=O)Nc1cccc(Cc2ccccc2)c1 [Compound 3639],,,EC50 [2]: 0.01 to 10 nM
COC(=O)[C@H](CCNC(=O)C(=O)NC1CCCCCC1)NC(=O)c1ccc(Nc2nc(NC3(c4ccc(Cl)cc4)CC3)nc(OCC(F)(F)F)n2)cc1 [Compound 1141],,0.01 to 10 nM,
COCC1(CNC(=O)C(=O)NCC[C@@H](NC(=O)c2ccc(Nc3nc(NC4(c5ccc(Cl)cc5)CC4)nc(OCC(F)(F)F)n3)cc2)C(=O)O)CC1 [Compound 1419],,0.01 to 10 nM,
O=C(NC1CCCCC1)C(=O)N1CCCC(CNC(=O)c2ccc(Nc3nc(NC4(c5ccc(Cl)cc5)CC4)nc(OCC(F)(F)F)n3)cc2)C1 (centres unmarked) [Compound 3489],0.01 to 10 nM,,
COC(=O)[C@H](CNC(=O)C(=O)NCCn1cncn1)NC(=O)c1ccc(Nc2nc(NC3(c4ccc(Cl)cc4)CC3)nc(OCC(F)(F)F)n2)cc1 [Compound 1298],,0.01 to 10 nM,
COC(=O)[C@H](CNC(=O)C(=O)Nc1ccc(-c2ccno2)cc1)NC(=O)c1ccc(Nc2nc(NC3(c4ccc(Cl)cc4)CC3)nc(OCC(F)(F)F)n2)cc1 [Compound 3199],0.01 to 10 nM,,
O=C(NC/C(=N/C(=O)c1ccc(Nc2nc(NC3(c4ccc(Cl)cc4)CC3)nc(OCC(F)(F)F)n2)cc1)C(=O)O)C(=O)Nc1ccc(-n2cccn2)cc1 [Compound 3173],0.01 to 10 nM,,
CC(C)(CNC(=O)C(=O)Nc1cc[nH]n1)CNC(=O)c1ccc(Nc2nc(NC3(c4ccc(Cl)cc4)CC3)nc(OCC(F)(F)F)n2)cc1 [Compound 3794],,,"EC50 (Huh-7, 48 h, HCV pseudoparticles, Huh7 cells, luciferase 2 days after infection, average of duplicates): 0.061 nM; EC50 [2]: 0.01 to 10 nM"
Cc1ccn(-c2ccccc2NC(=O)C(=O)NCC(C)(C)CNC(=O)c2ccc(Nc3nc(NC4(c5ccc(Cl)cc5)CC4)nc(OCC(F)(F)F)n3)cc2)n1 [Compound 3260],0.01 to 10 nM,,
COC(=O)[C@H](CNC(=O)C(=O)Nc1cccc(-c2cnco2)c1)NC(=O)c1ccc(Nc2nc(NC3(c4ccc(Cl)cc4)CC3)nc(OCC(F)(F)F)n2)cc1 [Compound 3696],,,EC50 [2]: 0.01 to 10 nM
CC(C)(CNC(=O)C(=O)Nc1ccc2ncsc2c1)CNC(=O)c1ccc(Nc2nc(NC3(c4ccc(Cl)cc4)CC3)nc(OCC(F)(F)F)n2)cc1 [Compound 3340],0.01 to 10 nM,,

SMILES,EC50 [1],EC50 [3],further results
CC1(C)CC(NC(=O)C(=O)NCC[C@H](NC(=O)c2ccc(Nc3nc(NC4(c5ccc(Cl)cc5)CC4)nc(OCC(F)(F)F)n3)cc2)C(=O)O)CC(C)(C)C1 [Compound 1115],,0.01 to 10 nM,
COCc1ccc(NC(=O)C(=O)NCC[C@H](NC(=O)c2ccc(Nc3nc(NC4(c5ccc(Cl)cc5)CC4)nc(OCC(F)(F)F)n3)cc2)C(=O)O)cc1 [Compound 3543],0.01 to 10 nM,,
O=C(NCC[C@H](NC(=O)c1ccc(Nc2nc(NC3(c4ccc(Cl)cc4)CC3)nc(OCC(F)(F)F)n2)cc1)C(=O)O)C(=O)Nc1ccc(F)cc1F [Compound 1502],,0.01 to 10 nM,
"CCOC(=O)[C@H](CCCNC(=O)C(=O)NC)NC(=O)c1ccc(Nc2nc(NC3(c4ccc(Cl)cc4)CC3)nc(OCC(F)(F)F)n2)cc1 [Compound 1030, (S)-ethyl 2-(4-(4-(1-(4-chlorophenyl)cyclopropylamino)-6-(2,2,2-trifluoroethoxy)-1,3,5-triazin-2-ylamino)benzamido)-5-(2-(methylamino)-2-oxoacetamido)pentanoate]",,0.01 to 10 nM,
COC(=O)[C@H](CCNC(=O)C(=O)NC1CC(C)(C)CC(C)(C)C1)NC(=O)c1ccc(Nc2nc(NC3(c4ccc(Cl)cc4)CC3)nc(OCC(F)(F)F)n2)cc1 [Compound 1071],,0.01 to 10 nM,
CC(C)(CNC(=O)C(=O)Nc1ccc(Cl)cc1F)CNC(=O)c1ccc(Nc2nc(NC3(c4ccc(Cl)cc4)CC3)nc(OCC(F)(F)F)n2)cc1 [Compound 3452],0.01 to 10 nM,,
CC(C)(CNC(=O)C(=O)Nc1ccc2ncoc2c1)CNC(=O)c1ccc(Nc2nc(NC3(c4ccc(Cl)cc4)CC3)nc(OCC(F)(F)F)n2)cc1 [Compound 1567],,0.01 to 10 nM,
CCOc1ccc(NC(=O)C(=O)NCC(C)(C)CNC(=O)c2ccc(Nc3nc(NC4(c5ccc(Cl)cc5)CC4)nc(OCC(F)(F)F)n3)cc2)cc1 [Compound 3062],0.01 to 10 nM,,
O=C(NCC[C@H](NC(=O)c1ccc(Nc2nc(NC3(c4ccc(Cl)cc4)CC3)nc(OCC(F)(F)F)n2)cc1)C(=O)O)C(=O)NCC1CCCc2ccccc21 (some centres unmarked) [Compound 1343],,0.01 to 10 nM,
CC(C)(CNC(=O)C(=O)Nc1ccc(F)cc1)CNC(=O)c1ccc(Nc2nc(NC3(c4ccc(Cl)cc4)CC3)nc(OCC(F)(F)F)n2)cc1 [Compound 1479],,0.01 to 10 nM,
Cc1ccc(NC(=O)C(=O)NCC(O)CNC(=O)c2ccc(Nc3nc(NC4(c5ccc(Cl)cc5)CC4)nc(OCC(F)(F)F)n3)cc2)cc1Cl (centres unmarked) [Compound 3466],0.01 to 10 nM,,
Cc1ccc(CCNC(=O)C(=O)NC[C@H](NC(=O)c2ccc(Nc3nc(NC4(c5ccc(Cl)cc5)CC4)nc(OCC(F)(F)F)n3)cc2)C(=O)O)cc1 [Compound 1404],,0.01 to 10 nM,
O=C(NCCc1ccccc1)C(=O)NCC[C@H](NC(=O)c1ccc(Nc2nc(NC3(c4ccc(Cl)cc4)CC3)nc(OCC(F)(F)F)n2)cc1)C(=O)O [Compound 1328],,0.01 to 10 nM,
COC(=O)[C@H](CNC(=O)C(=O)NC1CCCCC1)NC(=O)c1ccc(Nc2nc(NC3(c4ccc(Cl)cc4)CC3)nc(OCC(F)(F)F)n2)cc1 [Compound 1132],,0.01 to 10 nM,
O=C(NCC[C@H](NC(=O)c1ccc(Nc2nc(NC3(c4ccc(Cl)cc4)CC3)nc(OCC(F)(F)F)n2)cc1)C(=O)O)C(=O)Nc1ccc(-n2cccn2)cc1 [Compound 3237],0.01 to 10 nM,,
COC(=O)[C@H](CNC(=O)C(=O)Nc1ccc(Cn2cccn2)cc1)NC(=O)c1ccc(Nc2nc(NC3(c4ccc(Cl)cc4)CC3)nc(OCC(F)(F)F)n2)cc1 [Compound 3195],0.01 to 10 nM,,
"CN(C)C(=O)C(=O)NCC(C)(C)CNC(=O)c1ccc(Nc2nc(NC3(c4ccc(Cl)cc4)CC3)nc(OCC(F)(F)F)n2)cc1 [Compound 1008, N1-(3-(4-(4-(1-(4-chlorophenyl)cyclopropylamino)-6-(2,2,2-trifluoroethoxy)-1,3,5-triazin-2-ylamino)benzamido)-2,2-dimethylpropyl)-N2,N2-dimethyloxalamide]",,0.01 to 10 nM,
COC(=O)[C@H](CNC(=O)C(=O)NCCc1ccc(F)cc1)NC(=O)c1ccc(Nc2nc(NC3(c4ccc(Cl)cc4)CC3)nc(OCC(F)(F)F)n2)cc1 [Compound 1292],,0.01 to 10 nM,
O=C(NCC[C@H](NC(=O)c1ccc(Nc2nc(NC3(c4ccc(Cl)cc4)CC3)nc(OCC(F)(F)F)n2)cc1)C(=O)O)C(=O)Nc1ccc(-n2cnc(Cl)c2Cl)cc1 [Compound 3225],10 to 1000 nM,,"EC50 (Huh-7, 48 h, HCV pseudoparticles (genotype 1a, H77C) in Huh7 cells, average of duplicate, luciferase 2 days after infection): 17 nM"
COC(=O)[C@H](CCNC(=O)C(=O)Nc1ccc(-c2ccccc2)cc1)NC(=O)c1ccc(Nc2nc(NC3(c4ccc(Cl)cc4)CC3)nc(OCC(F)(F)F)n2)cc1 [Compound 1524],,0.01 to 10 nM,
CCC1CCC(NC(=O)C(=O)NC[C@H](NC(=O)c2ccc(Nc3nc(NC4(c5ccc(Cl)cc5)CC4)nc(OCC(F)(F)F)n3)cc2)C(=O)O)CC1 (some centres unmarked) [Compound 1093],,0.01 to 10 nM,
COC(=O)[C@H](CNC(=O)C(=O)Nc1ccc(-n2cnc(Cl)c2Cl)cc1)NC(=O)c1ccc(Nc2nc(NC3(c4ccc(Cl)cc4)CC3)nc(OCC(F)(F)F)n2)cc1 [Compound 3095],0.01 to 10 nM,,
COC(=O)/C(CCNC(=O)C(=O)Nc1ccc(N2CCOCC2)nc1)=N\C(=O)c1ccc(Nc2nc(NC3(c4ccc(Cl)cc4)CC3)nc(OCC(F)(F)F)n2)cc1 [Compound 3585],0.01 to 10 nM,,
